From a melting point compilation (Tetko et al.; mined from patent text by program, amines drawn as free bases though some values may be those of a salt) come the findings set out here.

As usually defined, the melting point is the temperature, or range, at which the solid turns liquid.

In the case of `CCOC(=O)CC1CCc2[nH]c3ccccc3c2C1` (centres undefined), the melting point lay in the range of 122 to 123 °C.
Regarding `CC1(C)c2cc(OS(C)(=O)=O)ccc2OC1Cl` (centres undefined), the melting point lay in the range of 59 to 61 °C.
The same measure for `CC(O)c1cc(I)cc(S(N)(=O)=O)c1` (centres undefined): 184 to 187 °C.
The compound `CS(=O)(=O)Nc1nc(CCCN2CCN(C(c3ccccc3)c3ccccc3)CC2)cs1` returned a melting point of 181 to 183 °C.
As for `CC(C)(C)OC(=O)N(C(=O)OC(C)(C)C)c1cc(-c2ccc(N)cc2)n(C(=O)OC(C)(C)C)n1`, the melting point lay in the range of 84 to 85 °C.
`CC1Cc2ccc(Br)cc2C(c2ccc([N+](=O)[O-])cc2)O1` (centres undefined): the melting point lay within 130 to 133 °C.
In turn, `NC(=O)c1ccc(OC(F)(F)F)c(Cl)c1` yielded a melting point of 98 °C.
The compound `O=C(NO)c1ccc2c(c1)CN(C(=O)c1cc3ccccc3cn1)C2` displayed a melting point of 208 to 210 °C.
For the compound `CCOC(=O)c1nc2ccc(C(C(C)C)n3ccnc3)cc2[nH]c1=O` (centres undefined), the melting point was determined as 185 °C.
Consider `O=C(Nc1cncc(Cl)n1)C1=C(O)c2ccccc2S(=O)(=O)N1`, for which the melting point lay in the range of 234 to 235 °C.
For `O=C(Nc1ccccn1)c1cnc2c(C(F)(F)F)cccc2c1O`, the melting point is 335 to 336 °C.
`CSC1=C(C#N)C(c2ccc(N(C)C)cc2)(c2cccnc2)C(=O)N1CCCN(C)C` (centres undefined) yielded a melting point of 90 to 91 °C.
Take `O=C(Nc1ccccc1Br)OCc1cn(-c2cc3cc(C(=O)O)c(=O)[nH]c3cc2C(F)(F)F)cn1`: the melting point lay within 145 to 147 °C.
Turning to `CCC(CC)c1ccc(Cl)c2nc3n(c12)CCN3c1ccc(C(N)=O)cc1Cl`, the melting point was 225 to 229 °C.
For `CCn1nc(C(F)(F)F)c(CS(=O)(=O)C2=NOC(C)(C)C2)c1OC(F)F`, the melting point lay in the range of 98 to 100 °C.
Regarding `COc1cc(NC(=O)OCC2c3ccccc3-c3ccccc32)ccc1C=O`, the melting point fell in the range of 187 to 188 °C.
The same measure for `COC(=O)c1ccc(N(C)C)cn1`: 100 to 103 °C.
In the case of `CC(=O)Nc1ccc(NCCNS(C)(=O)=O)cc1`, the melting point turned out to be 130 °C.
The same measure for `Fc1cccc(F)c1-c1cncnc1`: 67 to 69 °C; for `CNc1c(F)cc2c(=O)c(C(=O)O)cn(-c3ccc(F)c(O)c3)c2c1Cl`: more than 280 °C.
The compound `COc1c(CC(C)(C)C(=O)O)n(Cc2ccc(Cl)cc2)c2ccc(O)cc12` returned a melting point of 137 °C.
Take `COc1c(N2CC3CC3(CN)C2)c(F)cc2c(=O)c(C(=O)O)cn(C3CC3)c12` (centres undefined): the melting point was in the range of 194 to 196 °C.
In turn, `CC(=O)NCCNC1=NS(=O)(=O)c2cc(Cl)ccc2N1` yielded a melting point of 295 to 297 °C.
Compound `N#Cc1cccc(-c2nc3sccn3c2-c2ccnc(N[C@@H]3CCCN(S(=O)(=O)c4ccc(Cl)cc4)C3)n2)c1` yielded a melting point of 144 to 146 °C.
With `Clc1ccc2nc(CN3CCN(c4ncccn4)CC3)cn2c1`, the melting point was 114 to 115 °C.
The same measure for `Cc1ccc(CC2CCN(C(=O)C(=O)Nc3ccc4c(c3)CS(=O)(=O)N4)CC2)cc1`: 186 °C.
Compound `O=C(O)COc1ccc(SCc2ccc(OCc3ccc(F)c(C(F)(F)F)c3)cc2)c2c1CCC2` gave a melting point of 116 to 117 °C.
`NC(=O)CN1CCN(c2ccc3c(c2)N2CCN=C2C(c2ccccc2)=[N+]3[O-])CC1`: the melting point lay in the range of 225 to 227 °C.
In turn, `O=C1NC(=O)C(Cc2ccc(O)c(C(=O)NCc3ccc(C(F)(F)F)cc3)c2)S1` (centres undefined) registered a melting point of 146 to 148 °C.
The compound `COn1cc(C(=O)NCc2ccc(Cl)cc2)c(=O)c2ccccc21` displayed a melting point of 155 to 160 °C.
Regarding `O=C(O)c1cccc(S(=O)(=O)Cc2c(O[C@H](Cn3ccnc3)c3ccccc3)ccc3c2CCCC3=O)c1`, the melting point lay in the range of 236 to 238 °C.
The same measure for `O=C(NCCN1CCC(O)(c2ccc(Cl)cc2)CC1)c1ccccc1Br`: 121 °C.
In the case of `CCS(=O)(=O)c1cc(OCCCCCCc2cccc(OCCCC(=O)O)c2CCC(=O)O)cc(-c2ccc3c(c2)OCO3)c1` it was 134 to 135 °C; in that of `CC(C)(C)OC(=O)NCCc1cccc(-c2nc(=O)c3ccccc3s2)n1`, 170 to 171 °C; in that of `Cn1c(C(F)(F)F)nn(Cc2c(Cl)ccc(C(=O)O)c2Cl)c1=O`, 207 °C.
Take `CC(C)(C)c1ccc(C(O)CCCN2CCC(OC(c3ccccc3)c3ccccc3)CC2)cc1` (centres undefined): the melting point was in the range of 129 to 131 °C.
`CCOc1cc(OCC)c2c(C)c(CCO)c(=O)oc2c1` gave a melting point of 117 to 119 °C.
`CCCC(=O)c1ccc(N(CCO)CCO)cc1` gave a melting point of 72 to 75 °C.
`Cc1nc2scc(C)n2c(=O)c1CCN1CCC(Nc2nc3ccccc3n2Cc2ccc(F)cc2)CC1` showed a melting point of 141 °C.
Regarding `CC1Cc2cc(C(=O)O)ccc2C1=O` (centres undefined), the melting point lay within 189 to 194 °C.
As to `Cc1ncc2cc(-c3c(Cl)cccc3Cl)c(NC(=O)c3ccco3)nc2n1`, the melting point lay within 228 to 230 °C.
Compound `CCNC(=S)NC1CC(C)(C)NC(C)(C)C1` yielded a melting point of 134 °C.
Consider `CC(C)C(NC(=O)OCCN1CCOCC1)C(=O)NC(Cc1ccccc1)C(O)C(Cc1ccccc1)NC(=O)C(NC(=O)OCCN1CCOCC1)C(C)C` (centres undefined), for which the melting point lay within 122 to 123 °C.
The same measure for `COc1cc2c(c(C(=O)c3ccccc3)c1)NC(=O)C2`: 154 °C; for `Cc1noc(C)c1COCCn1cnc2c(N)nc3ccccc3c21`: 213 to 215 °C; for `COCOc1ccccc1-c1cc(-c2cccc(C(=O)OC)c2)c(C#N)c(NC(=O)c2cccs2)n1`: 159 to 160 °C.
Regarding `Nc1ccccc1C(=O)Nc1nnn[nH]1`, the melting point lay within 253 to 254 °C.
As to `Cc1cc2c(c(C)c1NC(=O)CC(C)(C)C)CC(C)(C)O2`, the melting point was in the range of 181 to 182 °C.
In turn, `CC(C)Oc1cc(N2C(=O)C3CCCCN3C2=O)c(F)cc1Cl` (centres undefined) had a melting point of 60.5 to 64.5 °C.
In the case of `CCC1c2cccn2-c2cc(F)c(F)cc2N1S(=O)(=O)c1ccc(O)cc1` (centres undefined) it was 177 to 179 °C; in that of `O=C(O)C1CCN(c2ncc(NS(=O)(=O)c3ccccc3Br)c(NCc3ccccc3)n2)CC1`, 114 to 117 °C.
`CC(C)=C1OC(=O)N(c2cc(OC3CCCC3)c(Cl)cc2F)C1=N` had a melting point of 131 to 133 °C.
In the case of `CC(=O)N1CCN=C1Nc1c(C)c(C)nn1C`, the melting point fell in the range of 212 to 215 °C.
As to `CCC(=O)c1ccc(O)c(CNC(=O)CCl)c1`, the melting point was in the range of 143 to 145 °C.
In the case of `C[C@@H](n1cnn(-c2ccc(OC(F)(F)C(F)F)cc2)c1=O)[C@@]1(c2ccc(F)cc2F)CO1` it was 105 to 106 °C.
In the case of `COc1ccc(C2=NNC(=O)CC2c2ccncc2)cc1` (centres undefined), the melting point was in the range of 100 to 102 °C.
The same measure for `CNNc1nncc(-c2ccccc2)n1`: 112 to 113 °C; for `CCOC(=O)c1ncn2c1c(=O)n(C)c1ncccc12`: 233 to 234 °C.
`Cc1cc(C)cc(-c2cc3cnc(N)nc3nc2N)c1` registered a melting point of 298 to 302 °C.
Turning to `CCOC(=O)c1cccnc1N`, the melting point lay in the range of 90.5 to 92.5 °C.
`On1nnc2ccc(C3CCCc4cncn43)cc21` (centres undefined) came in with a melting point of 279 °C.
As for `O=C1c2ccccc2CN1c1cccc(CCN2CCN(c3nsc4ccccc34)CC2)c1`, the melting point lay within 154 to 155 °C.
In turn, `CC1=C(CC2=NCCN2C)CCc2ccccc21` displayed a melting point of 162 to 164 °C.
On to `Cc1cc(C#N)cc(C(C#N)c2nc(OCc3ccccc3)nc(OCc3ccccc3)c2C(C)(C)C)c1` (centres undefined), for which the melting point lay in the range of 126 to 128 °C.
The compound `CCCc1ccccc1OCCCOc1ccc2c(c1CCC)OC(CCC(=O)O)(CCC(=O)O)CC2=O` gave a melting point of 163 to 165 °C.
In turn, `CN(Sc1ccc(C(C)(C)C)cc1)C(=O)Oc1cccc2c1OC(C)(C)C2` had a melting point of 120 to 123 °C.
`CC(=O)c1c(-c2ccc(S(C)=O)cc2)[nH]c(-c2ccncc2)c1C` (centres undefined) came in with a melting point of 249 to 250 °C.
For `COC(=O)c1ccc(C(=O)N2CCCc3ccccc32)cc1`, the melting point lay within 72 to 74 °C.
The compound `O=C(O)CCCCc1cc2nc(Cl)ccc2n1S(=O)(=O)c1ccccc1` came in with a melting point of 113 °C.
For `Oc1ccc(-c2cc3ccc(O)cc3s2)cc1`, the melting point is 305 to 306 °C.
Turning to `Cn1nnc2cc(C(O)c3ccccc3)ccc21` (centres undefined), the melting point amounted to 129 °C.
`CCS1(N2CCN(c3ccccc3OC)CC2)C(C)=C(C)c2c1[nH]c(=O)[nH]c2=O` (centres undefined) had a melting point of 196 to 197 °C.
As for `CC(C)(OCc1nn(C(=O)c2ccccc2)c2ccccc12)C(=O)O`, the melting point lay within 132 to 135 °C.
In turn, `Cc1cc(Cl)cc2c1OCCCC2NS(C)(=O)=O` (centres undefined) came in with a melting point of 154 to 156 °C.
`CC(C)(C)CN1C(=O)C(=O)N(c2ccc(C#N)cc2)C1=S` returned a melting point of 128 to 129 °C.
In turn, `S=C(Nc1ccc(Cl)cc1)Nc1ncccc1OCc1c(Cl)cccc1Cl` had a melting point of 179 to 180 °C.
In turn, `O=S(=O)(Nc1cccc(CCOCc2sc3ccccc3c2Cl)c1)C(F)(F)F` returned a melting point of 85 to 87 °C.
The same measure for `CS(=O)(=O)C=Cc1ccccc1`: 77 to 79 °C; for `COc1nc2cccc(C=O)c2nc1OC`: 137 to 140 °C.
The same measure for `CC(C)C[C@H]1C[C@]2(O)C[C@@H](OC2=O)[C@@H]1OC(=O)c1ccccc1`: 71 to 72 °C; for `Cc1ccc(NC(=O)c2ccc(CN3CCN(C)CC3)c(C(F)(F)F)c2)cc1NC(=O)N(C)c1cc(N)ncn1`: 192 to 193 °C; for `COc1cc(C2(O)CCOCC2)ccc1OCc1ccc2ccccc2c1`: 150 to 151 °C.
The same measure for `CSc1ccc(C[C@H](CO)NC(=O)OCc2ccccc2)cc1`: 115 to 117 °C.
`CC(C)OC(=O)c1cc(-n2c(=O)[nH]cc(C#N)c2=O)c(F)cc1Cl` returned a melting point of 143 to 145 °C.
With `CCn1c(=O)c(-n2c(C(N)=O)nnc2-c2ccc(C#N)cc2)c(C)n(-c2cccc(C(F)(F)F)c2)c1=O`, the melting point came out at 256 °C.
The compound `NC(=O)C1CCCCc2cc3c(nc21)CCCCC3` (centres undefined) came in with a melting point of 179 °C.
With `NNC(=S)NN=Cc1ccco1`, the melting point was 186 to 187 °C.
In the case of `CCNc1nc(Cl)nc(Nc2ccc(OC)cc2)n1`, the melting point was in the range of 174 to 176 °C.
In the case of `Cn1c([N+](=O)[O-])cnc1-c1nnc2ccc(N=CNC3CCCCC3)nn12` it was 198 to 200 °C.
